# Reference: ChEMBL document CHEMBL1135206, “Albumin affinity tags increase peptide half-life in vivo” (Bioorg Med Chem Lett, 2002)
# *1 amine or outer side, *2 acyl side, *3 side chain or, on linkers, in order; H or OH if unused. Where a SMILES comes first, the peptide text is derived from it. Bridges are numbered along the chain shown (N, C = ends). [ ]: non-standard residue; d: D form. The star is where a group is joined. X3 = C[C@@H](C(=O)[*:2])N(Cc1ccccc1OC(F)(F)F)[*:1]; X5 = C[C@@H](C(=O)[*:2])N(Cc1cccc2ccccc12)[*:1]; 2Naphthylsulfonyl = O=S(=O)(c1ccc2ccccc2c1)*; X2 = O=C(CCC(=O)*)NS(=O)(=O)c1ccc2ccccc2c1; Benzoyl(4-Ph) = O=C(c1ccc(-c2ccccc2)cc1)*; Quinoline3carbonyl = O=C(c1cnc2ccccc2c1)*; X6 = O=C(c1ccc(-c2ccccc2[N+](=O)[O-])o1)*; Mts = Cc1cc(C)c(S(=O)(=O)*)c(C)c1; Quinaldoyl = O=C(c1ccc2ccccc2n1)*; NH(4-Cl-phenyl) = Clc1ccc(N*)cc1; CO = O=C([*:1])[*:2]; X4 = Cc1cccc(N*)c1
# Tests used:
# Coagulation factor VII = biological target: T1, Coagulation factor VII (Homo sapiens, UniProt P08709); assay: Inhibition of amino terminally biotinylated E-76 peptide binding to immobilized fVIIa
# T1 sequence (P08709 whole entry): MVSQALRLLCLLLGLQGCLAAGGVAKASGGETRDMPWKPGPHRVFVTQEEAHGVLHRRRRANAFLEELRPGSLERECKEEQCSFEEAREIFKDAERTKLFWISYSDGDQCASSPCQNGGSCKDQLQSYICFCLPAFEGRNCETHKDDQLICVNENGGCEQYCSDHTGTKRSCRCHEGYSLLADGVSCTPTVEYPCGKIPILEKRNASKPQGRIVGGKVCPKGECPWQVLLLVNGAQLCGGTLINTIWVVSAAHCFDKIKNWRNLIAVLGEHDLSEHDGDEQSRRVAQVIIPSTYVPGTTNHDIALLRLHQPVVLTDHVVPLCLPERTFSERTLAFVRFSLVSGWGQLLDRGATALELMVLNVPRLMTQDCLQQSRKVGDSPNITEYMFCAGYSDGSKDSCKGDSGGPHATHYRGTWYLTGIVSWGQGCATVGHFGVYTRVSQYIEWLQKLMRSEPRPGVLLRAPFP
# Albumin = Albumin (Homo sapiens, UniProt P02768); assay: In vitro binding affinity for human serum albumin.; design: unit not given here
# Sequence of Albumin (P02768 whole entry): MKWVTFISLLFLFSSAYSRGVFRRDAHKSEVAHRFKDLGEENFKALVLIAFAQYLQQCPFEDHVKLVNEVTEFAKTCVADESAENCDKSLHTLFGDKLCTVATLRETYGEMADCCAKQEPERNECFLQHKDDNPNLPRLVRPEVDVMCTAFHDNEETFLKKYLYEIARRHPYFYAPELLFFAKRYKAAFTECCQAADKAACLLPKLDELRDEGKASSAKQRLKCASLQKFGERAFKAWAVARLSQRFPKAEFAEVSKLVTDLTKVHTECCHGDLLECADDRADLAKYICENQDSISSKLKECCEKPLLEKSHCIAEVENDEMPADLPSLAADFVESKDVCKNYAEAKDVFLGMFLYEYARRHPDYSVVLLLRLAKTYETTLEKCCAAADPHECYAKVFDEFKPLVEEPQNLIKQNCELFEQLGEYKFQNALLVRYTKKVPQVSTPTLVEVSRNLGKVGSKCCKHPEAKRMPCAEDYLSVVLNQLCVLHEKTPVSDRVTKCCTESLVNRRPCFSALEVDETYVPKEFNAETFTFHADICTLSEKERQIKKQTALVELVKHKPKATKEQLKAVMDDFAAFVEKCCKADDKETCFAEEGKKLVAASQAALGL
# [1] = Plasma half-life in male New Zealand white rabbits after administration via an indwelling catheter in an ear vein at 5 mg/kg; type: ADME, organism-based, Oryctolagus cuniculus; design: dose 5 mg/kg; settings: rabbit, iv
# [2] = Mean retention time in male New Zealand white rabbits after administration via an indwelling catheter in an ear vein at 5 mg/kg; type: ADME, organism-based, Oryctolagus cuniculus; design: dose 5 mg/kg; settings: rabbit, in vivo, iv
# [3] = Clearance in male New Zealand white rabbits after administration via an indwelling catheter in an ear vein at 5 mg/kg; type: ADME, organism-based, Oryctolagus cuniculus; design: dose 5 mg/kg; settings: rabbit, in vivo, iv
# [4] = Clearance in male New Zealand white rabbits after i.v. administration at 2.0 mg/kg; type: ADME, organism-based, Oryctolagus cuniculus; design: dose 2 mg/kg, route intravenous; settings: rabbit, in vivo, iv
# [5] = Mean retention time in male New Zealand white rabbits after i.v. administration at 2.0 mg/kg; type: ADME, organism-based, Oryctolagus cuniculus; design: dose 2 mg/kg, route intravenous; settings: rabbit, in vivo, iv
# [6] = Plasma half-life in male New Zealand white rabbits after i.v. administration at 2.0 mg/kg; type: ADME, organism-based, Oryctolagus cuniculus; design: dose 2 mg/kg, route intravenous; settings: rabbit, iv
Compound,IC50 (Coagulation factor VII) [nM],Binding affinity (Albumin),further results
CC[C@H](C)[C@@H]1NC(=O)[C@H](CCCNC(=N)N)NC(=O)[C@@H]2CCCN2C(=O)[C@H](CC(N)=O)NC(=O)[C@H](CC(=O)O)NC(=O)[C@@H](NC(=O)[C@H](CC(C)C)NC(=O)[C@H](C)NS(=O)(=O)c2ccc3ccccc3c2)CSSC[C@@H](C(=O)N[C@@H](CCC(N)=O)C(=O)N[C@@H](Cc2ccccc2)C(=O)N[C@H](C(=O)N[C@@H](CCC(=O)O)C(=O)NCC(N)=O)C(C)C)NC(=O)[C@H](Cc2ccc(O)cc2)NC(=O)[C@H](Cc2c[nH]c3ccccc23)NC(=O)[C@H](CCCNC(=N)N)NC(=O)[C@H](CC(=O)O)NC1=O (2Naphthylsulfonyl-ALCDNPRIDRWYCQFVEG-NH2; disulfide 3-13),20.4,0.92,
CC[C@H](C)[C@@H]1NC(=O)[C@H](CCCN=C(N)N)NC(=O)[C@@H]2CCCN2C(=O)[C@H](CC(N)=O)NC(=O)[C@H](CC(=O)O)NC(=O)[C@@H](NC(=O)[C@H](CC(C)C)NC(=O)[C@H](C)NC(C)=O)CSSC[C@@H](C(=O)N[C@@H](CCC(N)=O)C(=O)N[C@@H](Cc2ccccc2)C(=O)N[C@H](C(=O)N[C@@H](CCC(=O)O)C(=O)NCC(N)=O)C(C)C)NC(=O)[C@H](Cc2ccc(O)cc2)NC(=O)[C@H](Cc2c[nH]c3ccccc23)NC(=O)[C@H](CCCN=C(N)N)NC(=O)[C@H](CC(=O)O)NC1=O (Ac-ALCDNPRIDRWYCQFVEG-NH2; disulfide 3-13),1.1,0.21,half-life [1]: 5 min; MRT [2]: 3.2 min; clearance [3]: 33 mL/min/kg
CC[C@H](C)[C@@H]1NC(=O)[C@H](CCCN=C(N)N)NC(=O)[C@@H]2CCCN2C(=O)[C@H](CC(N)=O)NC(=O)[C@H](CC(=O)O)NC(=O)[C@@H](NC(=O)[C@H](CC(C)C)NC(=O)[C@H](C)NCc2ccccc2OC(F)(F)F)CSSC[C@@H](C(=O)N[C@@H](CCC(N)=O)C(=O)N[C@@H](Cc2ccccc2)C(=O)N[C@H](C(=O)N[C@@H](CCC(=O)O)C(=O)NCC(N)=O)C(C)C)NC(=O)[C@H](Cc2ccc(O)cc2)NC(=O)[C@H](Cc2c[nH]c3ccccc23)NC(=O)[C@H](CCCN=C(N)N)NC(=O)[C@H](CC(=O)O)NC1=O (H-[X3]LCDNPRIDRWYCQFVEG-NH2; disulfide 3-13),13.4,0.93,
CC[C@H](C)[C@@H]1NC(=O)[C@H](CCCNC(=N)N)NC(=O)[C@@H]2CCCN2C(=O)[C@H](CC(N)=O)NC(=O)[C@H](CC(=O)O)NC(=O)[C@@H](NC(=O)[C@H](CC(C)C)NC(=O)[C@H](C)NCc2cccc3ccccc23)CSSC[C@@H](C(=O)N[C@@H](CCC(N)=O)C(=O)N[C@@H](Cc2ccccc2)C(=O)N[C@H](C(=O)N[C@@H](CCC(=O)O)C(=O)NCC(N)=O)C(C)C)NC(=O)[C@H](Cc2ccc(O)cc2)NC(=O)[C@H](Cc2c[nH]c3ccccc23)NC(=O)[C@H](CCCNC(=N)N)NC(=O)[C@H](CC(=O)O)NC1=O (H-[X5]LCDNPRIDRWYCQFVEG-NH2; disulfide 3-13),1.6,0.69,
CC[C@H](C)[C@@H]1NC(=O)[C@H](CCCNC(=N)N)NC(=O)[C@@H]2CCCN2C(=O)[C@H](CC(N)=O)NC(=O)[C@H](CC(=O)O)NC(=O)[C@@H](NC(=O)[C@H](CC(C)C)NC(=O)[C@H](C)NS(=O)(=O)c2c(C)cc(C)cc2C)CSSC[C@@H](C(=O)N[C@@H](CCC(N)=O)C(=O)N[C@@H](Cc2ccccc2)C(=O)N[C@H](C(=O)N[C@@H](CCC(=O)O)C(=O)NCC(N)=O)C(C)C)NC(=O)[C@H](Cc2ccc(O)cc2)NC(=O)[C@H](Cc2c[nH]c3ccccc23)NC(=O)[C@H](CCCNC(=N)N)NC(=O)[C@H](CC(=O)O)NC1=O (Mts-ALCDNPRIDRWYCQFVEG-NH2; disulfide 3-13),10,0.82,
CC[C@H](C)[C@@H]1NC(=O)[C@H](CCCN=C(N)N)NC(=O)[C@@H]2CCCN2C(=O)[C@H](CC(N)=O)NC(=O)[C@H](CC(=O)O)NC(=O)[C@@H](NC(=O)[C@H](CC(C)C)NC(=O)[C@H](C)NC(=O)c2ccc3ccccc3n2)CSSC[C@@H](C(=O)N[C@@H](CCC(N)=O)C(=O)N[C@@H](Cc2ccccc2)C(=O)N[C@H](C(=O)N[C@@H](CCC(=O)O)C(=O)NCC(N)=O)C(C)C)NC(=O)[C@H](Cc2ccc(O)cc2)NC(=O)[C@H](Cc2c[nH]c3ccccc23)NC(=O)[C@H](CCCN=C(N)N)NC(=O)[C@H](CC(=O)O)NC1=O (Quinaldoyl-ALCDNPRIDRWYCQFVEG-NH2; disulfide 3-13),2.9,0.64,
CC[C@H](C)[C@@H]1NC(=O)[C@H](CCCN=C(N)N)NC(=O)[C@@H]2CCCN2C(=O)[C@H](CC(N)=O)NC(=O)[C@H](CC(=O)O)NC(=O)[C@@H](NC(=O)[C@H](CC(C)C)NC(=O)[C@H](C)NC(=O)c2cnc3ccccc3c2)CSSC[C@@H](C(=O)N[C@@H](CCC(N)=O)C(=O)N[C@@H](Cc2ccccc2)C(=O)N[C@H](C(=O)N[C@@H](CCC(=O)O)C(=O)NCC(N)=O)C(C)C)NC(=O)[C@H](Cc2ccc(O)cc2)NC(=O)[C@H](Cc2c[nH]c3ccccc23)NC(=O)[C@H](CCCN=C(N)N)NC(=O)[C@H](CC(=O)O)NC1=O (Quinoline3carbonyl-ALCDNPRIDRWYCQFVEG-NH2; disulfide 3-13),11.8,0.64,
CC[C@H](C)[C@@H]1NC(=O)[C@H](CCCN=C(N)N)NC(=O)[C@@H]2CCCN2C(=O)[C@H](CC(N)=O)NC(=O)[C@H](CC(=O)O)NC(=O)[C@@H](NC(=O)[C@H](CC(C)C)NC(=O)[C@H](C)NC(=O)CCC(=O)NS(=O)(=O)c2ccc3ccccc3c2)CSSC[C@@H](C(=O)N[C@@H](CCC(N)=O)C(=O)N[C@@H](Cc2ccccc2)C(=O)N[C@H](C(=O)N[C@@H](CCC(=O)O)C(=O)NCC(N)=O)C(C)C)NC(=O)[C@H](Cc2ccc(O)cc2)NC(=O)[C@H](Cc2c[nH]c3ccccc23)NC(=O)[C@H](CCCN=C(N)N)NC(=O)[C@H](CC(=O)O)NC1=O (X2-ALCDNPRIDRWYCQFVEG-NH2; disulfide 3-13),1,0.97,clearance [4]: 1.6 mL/min/kg; MRT [5]: 35 min; half-life [6]: 30 min
CC[C@H](C)[C@@H]1NC(=O)[C@H](CCCNC(=N)N)NC(=O)[C@@H]2CCCN2C(=O)[C@H](CC(N)=O)NC(=O)[C@H](CC(=O)O)NC(=O)[C@@H](NC(=O)[C@H](CC(C)C)NC(=O)[C@H](C)NC(=O)c2ccc(-c3ccccc3[N+](=O)[O-])o2)CSSC[C@@H](C(=O)N[C@@H](CCC(N)=O)C(=O)N[C@@H](Cc2ccccc2)C(=O)N[C@H](C(=O)N[C@@H](CCC(=O)O)C(=O)NCC(N)=O)C(C)C)NC(=O)[C@H](Cc2ccc(O)cc2)NC(=O)[C@H](Cc2c[nH]c3ccccc23)NC(=O)[C@H](CCCNC(=N)N)NC(=O)[C@H](CC(=O)O)NC1=O (X6-ALCDNPRIDRWYCQFVEG-NH2; disulfide 3-13),1,0.79,
CC[C@H](C)[C@@H]1NC(=O)[C@H](CCCN=C(N)N)NC(=O)[C@@H]2CCCN2C(=O)[C@H](CC(N)=O)NC(=O)[C@H](CC(=O)O)NC(=O)[C@@H](NC(=O)[C@H](CC(C)C)NC(=O)[C@H](C)NC(=O)c2ccc(-c3ccccc3)cc2)CSSC[C@@H](C(=O)N[C@@H](CCC(N)=O)C(=O)N[C@@H](Cc2ccccc2)C(=O)N[C@H](C(=O)N[C@@H](CCC(=O)O)C(=O)NCC(N)=O)C(C)C)NC(=O)[C@H](Cc2ccc(O)cc2)NC(=O)[C@H](Cc2c[nH]c3ccccc23)NC(=O)[C@H](CCCN=C(N)N)NC(=O)[C@H](CC(=O)O)NC1=O ({Benzoyl(4-Ph)}-ALCDNPRIDRWYCQFVEG-NH2; disulfide 3-13),4,0.62,half-life [1]: 15 min; MRT [2]: 17 min; clearance [3]: 4.3 mL/min/kg
CC[C@H](C)[C@@H]1NC(=O)[C@H](CCCN=C(N)N)NC(=O)[C@@H]2CCCN2C(=O)[C@H](CC(N)=O)NC(=O)[C@H](CC(=O)O)NC(=O)[C@@H](NC(=O)[C@H](CC(C)C)NC(=O)[C@H](C)NC(=O)Nc2ccc(Cl)cc2)CSSC[C@@H](C(=O)N[C@@H](CCC(N)=O)C(=O)N[C@@H](Cc2ccccc2)C(=O)N[C@H](C(=O)N[C@@H](CCC(=O)O)C(=O)NCC(N)=O)C(C)C)NC(=O)[C@H](Cc2ccc(O)cc2)NC(=O)[C@H](Cc2c[nH]c3ccccc23)NC(=O)[C@H](CCCN=C(N)N)NC(=O)[C@H](CC(=O)O)NC1=O ({NH(4-Cl-phenyl)-CO}-ALCDNPRIDRWYCQFVEG-NH2; disulfide 3-13),13.4,0.65,
CC[C@H](C)[C@@H]1NC(=O)[C@H](CCCNC(=N)N)NC(=O)[C@@H]2CCCN2C(=O)[C@H](CC(N)=O)NC(=O)[C@H](CC(=O)O)NC(=O)[C@@H](NC(=O)[C@H](CC(C)C)NC(=O)[C@H](C)NC(=O)Nc2cccc(C)c2)CSSC[C@@H](C(=O)N[C@@H](CCC(N)=O)C(=O)N[C@@H](Cc2ccccc2)C(=O)N[C@H](C(=O)N[C@@H](CCC(=O)O)C(=O)NCC(N)=O)C(C)C)NC(=O)[C@H](Cc2ccc(O)cc2)NC(=O)[C@H](Cc2c[nH]c3ccccc23)NC(=O)[C@H](CCCNC(=N)N)NC(=O)[C@H](CC(=O)O)NC1=O ({X4-CO}-ALCDNPRIDRWYCQFVEG-NH2; disulfide 3-13),1.8,0.59,
